Reference: US20120076781A1, “METHODS OF TREATING CANCERS WITH HER3 ANTISENSE OLIGONUCLEOTIDES” (ENZON PHARMACEUTICALS, INC., priority 2009, published 2012)
Marks after values point to notes of the source that are not given here. In the oligonucleotide strings, read from the 5' end, every base follows the letter of its sugar. An asterisk marks phosphorothioate; unmarked linkages are phosphodiester. Other units and linkages are bracketed, terminal groups are in braces. A string of capitals states the bases alone. l = locked nucleic acid (LNA); [5mC] = 5-methylcytosine; d = 2'-deoxy (DNA)

Legend:
Mouse HER3 mRNA = test: HER3 mRNA knockdown in liver of nude mice bearing 15PC3 xenografts, qd x 5 (qRT-PCR); format: in vivo; details: i.v.
Description: (§1) To evaluate the knockdown efficacy of the HER3 oligomeric compounds in vivo, the female nude mice bearing 15PC3 xenografts developed by subcutaneous injection of 5×10^6 cells/mouse into the right axillary flank, were injected intravenously with the oligomers at various doses and injection schedules (i.e. single dose, qd, q3d, q4d). Scrambled oligomer SEQ ID NO: 236 served as a negative control. 24 hours after the last injection, the mice were euthanized and liver and tumor tissues were collected in RNAlater solution (Ambion). Total RNA was purified from the tissues and the levels of HER3 mRNA were determined by quantitative reverse transcription-real time PCR (qRT-PCR) using the QuantiTect Probe RT-PCR kit (Cat#: 204443; Qiagen). GAPDH mRNA served as an internal control.
(§2) 200 ng of total RNA was used in the PCR reaction. The data analyses were performed by using the ABI-7500 PCR Fast System included software.
(§3) Data in Table 5 are presented as % HER3 mRNA levels relative to saline treated controls in liver and tumor samples after i.v. dosing of animals on 5 consecutive days with oligonucleotides in the doses indicated.

human HER3 mRNA [1] = test: HER3 mRNA knockdown in 15PC3 xenograft tumor in nude mice, qd x 5 (qRT-PCR); format: in vivo; details: i.v., relative to saline controls
Description: as §1, §2, §3

HER3 mRNA [2] = test: HER3 mRNA knockdown in 15PC3 xenograft tumor, different dosing cycle; format: in vivo, human; details: every third day
Description: as §1
(§4) The knockdown efficacy of oligomers was evaluated in vivo in nude mice bearing xenograft tumors derived from 15PC3 cells or A549 cells (NSCLC) or N87 cells (gastric carcinoma) using a similar protocol to the one described above in Example 11. Oligomers were administered by injection every third day in 2-4 doses. Tissues were harvested 3 or 4 days after the last injection.
(§5) Data in Tables 6 and 7 are presented as % HER3 mRNA or HIF-1 alpha mRNA relative to saline treated controls in liver and tumor samples after i.v. dosing of animals with the indicated oligomers.

HIF-1 alpha mRNA = HIF-1 alpha mRNA in 15PC3 xenograft tumor, different dosing cycle; format: in vivo, human; details: every third day
Description: as §1, §4, §5

HER3 mRNA [3] = test: HER3 mRNA knockdown in liver of xenograft-bearing nude mice, different dosing cycle; format: in vivo, mouse; details: for Liver HER3 mRNA relative to saline treated controls: 15PC3 xenograft mice, every third day
Description: as §1
(§6) The knockdown efficacy of oligomers was evaluated in vivo in nude mice bearing xenograft tumors derived from 15PC3 cells or A549 cells (NSCLC) or N87 cells (gastric carcinoma) using a similar protocol to the one described above in Example 11. […] Tissues were harvested 3 or 4 days after the last injection.
as §5

HER3 mRNA [4] = test: HER3 mRNA knockdown in A549 (NSCLC) xenograft tumor; format: in vivo, human; details: 35 mg/kg, q4d x 3, i.v.
Description: as §1, §4, §5

human HER3 mRNA [5] = test: Down-regulation of HER3 mRNA in transfected HUH-7 cells, real-time PCR; format: cell-based; details: 25 nM, HUH-7 cells (indicated by *)
Description: HUH7: The human hepatocarcinoma cell line was cultured in DMEM (Sigma)+10% fetal bovine serum (FBS)+2 mM Glutamax I+gentamicin (25 μg/ml)+1× Non Essential Amino Acids.
The cells were treated with oligonucleotides using the cationic liposome formulation LipofectAMINE 2000 (Gibco) as transfection vehicle. Cells were seeded in 6-well cell culture plates (NUNC) and treated when 80-90% confluent. Oligomer concentrations ranged from 1 nM to 25 nM final concentration. Formulation of oligomer-lipid complexes was carried out essentially as described by the manufacturer using serum-free OptiMEM (Gibco) and a final lipid concentration of 5 μg/mL LipofectAMINE 2000. […]
(§7) The sample content of human HER3, EGFR and HER2 mRNA was quantified using the human HER3, EGFR and HER2 ABI Prism Pre-Developed TaqMan Assay Reagents (Applied Biosystems cat. no. Hs00951444_ml (HER3), Hs00193306_ml (EGFR) and Hs00170433_ml (HER2) according to the manufacturer's instructions.
Glyceraldehyde-3-phosphate dehydrogenase (GAPDH) mRNA quantity was used as an endogenous control for normalizing any variance in sample preparation. The sample content of human GAPDH mRNA was quantified using the human GAPDH ABI Prism Pre-Developed TaqMan Assay Reagent (Applied Biosystems cat. no. 4310884E) according to the manufacturer's instructions. […]

human EGFR mRNA = test: Down-regulation of EGFR mRNA in transfected 15PC3 cells, real-time PCR; format: cell-based; details: 25 nM
Description: (§8) 15PC3: The human prostate cancer cell line 15PC3 was cultured in DMEM (Sigma)+10% fetal bovine serum (FBS)+2 mM Glutamax I+gentamicin (25 μg/ml).
(§9) The cells were treated with oligonucleotides using the cationic liposome formulation LipofectAMINE 2000 (Gibco) as transfection vehicle. Cells were seeded in 6-well cell culture plates (NUNC) and treated when 80-90% confluent. Oligomer concentrations ranged from 1 nM to 25 nM final concentration. Formulation of oligomer-lipid complexes was carried out essentially as described by the manufacturer using serum-free OptiMEM (Gibco) and a final lipid concentration of 5 μg/mL LipofectAMINE 2000. Cells were incubated at 37° C. for 4 hours and treatment was stopped by removal of oligomer-containing culture medium. Cells were washed and serum-containing medium was added. After oligomer treatment, cells were allowed to recover for 20 hours before they were harvested for RNA analysis.
(§10) Total RNA was extracted from cells transfected as described above and using the Qiagen RNeasy kit (Qiagen cat. no. 74104) according to the manufacturer's instructions. First strand synthesis was performed using Reverse Transcriptase reagents from Ambion according to the manufacturer's instructions.
(§11) For each sample 0.5 μg total RNA was adjusted to (10.8 μl) with RNase free H2O and mixed with 2 μl random decamers (50 μM) and 4 μl dNTP mix (2.5 mM each dNTP) and heated to 70° C. for 3 min after which the samples were rapidly cooled on ice. After cooling the samples on ice, 2 μl 10× Buffer RT, 1 μl MMLV Reverse Transcriptase (100 U/μl) and 0.25 μl RNase inhibitor (10 U/μl) was added to each sample, followed by incubation at 42° C. for 60 min, heat inactivation of the enzyme at 95° C. for 10 min, and then cooling the sample to 4° C.
as §7
(§12) Glyceraldehyde-3-phosphate dehydrogenase (GAPDH) mRNA quantity was used as an endogenous control for normalizing any variance in sample preparation. The sample content of human GAPDH mRNA was quantified using the human GAPDH ABI Prism Pre-Developed TaqMan Assay Reagent (Applied Biosystems cat. no. 4310884E) according to the manufacturer's instructions.
(§13) The cDNA from the first strand synthesis performed as described in Example 5 was diluted 2-20 times, and analyzed by real time quantitative PCR using Taqman 7500 FAST or 7900 FAST from Applied Biosystems. The primers and probe were mixed with 2× Taqman Fast Universal PCR master mix (2×) (Applied Biosystems Cat. #4364103) and added to 4 μl cDNA to a final volume of 10 μl. Each sample was analysed in duplicate. Assaying 2-fold dilutions of a cDNA that had been prepared on material purified from a cell line expressing the RNA of interest generated standard curves for the assays. Sterile H2O was used instead of cDNA for the no-template control. PCR program: 95° C. for 30 seconds, followed by 40 cycles of 95° C., 3 seconds, 60° C., 20-30 seconds. Relative quantities of target mRNA sequence were determined from the calculated Threshold cycle using the Applied Biosystems Fast System SDS Software Version 1.3.1.21. or SDS Software Version 2.3.
(§14) Oligonucleotides presented in Table 4 were evaluated for their potential to down-regulate HER3, EGFR and HER2 mRNA at concentrations of 1, 5 and 25 nM in 15PC3 cells (or HUH-7 as indicated by *) (see FIGS. 2, 3, 4 and 5). SEQ ID NOs: 235 and 236 were used as scrambled controls.
(§15) The data in Table 4 are presented as percentage down-regulation of mRNA relative to mock transfected cells at 25 nM. Lower-case letters represent DNA monomers, bold, upper-case letters represent β-D-oxy-LNA monomers. All cytosines in LNA monomers are 5-methylcytosines. Subscript “s” represents a phosphorothioate linkage.

human HER2 mRNA = test: Down-regulation of HER2 mRNA in transfected 15PC3 cells, real-time PCR; format: cell-based; details: 25 nM
Description: as §8, §9, §10, §11, §7, §12, §13, §14, §15

HER3 mRNA [6] = test: HER3 mRNA knockdown in N87 (gastric carcinoma) xenograft tumor; format: in vivo, human; details: 25 mg/kg, q3d x 5, i.v.
Description: as §1, §6, §5

## CSGSCSASgSaStStSaSgSaSaSASCSCSt (l[5mC]*lG*l[5mC]*lA*dG*dA*dT*dT*dA*dG*dA*dA*lA*l[5mC]*l[5mC]*dT) [SEQ ID NO: 236, scrambled oligomer, negative control, reference compound]
Mouse HER3 mRNA; 22.9 mg/kg
  HER3 mRNA Liver: 81.4 ± 6.5 % of Sal ctrl
Mouse HER3 mRNA; 30 mg/kg
  HER3 mRNA Liver: 87.6 ± 19 % of Sal ctrl
Mouse HER3 mRNA; 60 mg/kg
  HER3 mRNA Liver: 86.5 ± 9.9 % of Sal ctrl
Mouse HER3 mRNA; 76.3 mg/kg
  HER3 mRNA Liver: 78 ± 17 % of Sal ctrl
Human HER3 mRNA [1]; 22.9 mg/kg
  HER3 mRNA Tumor: 119.3 ± 24.9%
Human HER3 mRNA [1]; 30 mg/kg
  HER3 mRNA Tumor: 101.2 ± 21.1%
Human HER3 mRNA [1]; 60 mg/kg
  HER3 mRNA Tumor: 95.5 ± 12.7%
Human HER3 mRNA [1]; 76.3 mg/kg
  HER3 mRNA Tumor: 100 ± 10.5%
HER3 mRNA [2]; 76.3 x 4 mg/kg i.v.
  Tumor HER3 mRNA relative to saline treated controls: 106 ± 6.6%
HIF-1 alpha mRNA; 76.3 x 4 mg/kg i.v.
  Tumor Hif1A mRNA relative to saline treated controls: 101 ± 13.8%
HER3 mRNA [3]; 76.3 x 4 mg/kg i.v.
  Liver HER3 mRNA relative to saline treated controls: 115.9 ± 26.3%
HER3 mRNA [3]; A549 xenograft mice, 35 mg/kg, q4d x 3, i.v.
  HER3 Liver: 97.5 ± 21.2 % saline control
HER3 mRNA [4]
  HER3 Tumor: 87.6 ± 11.9 % saline control

## GSASCSaStScSaScStScStSgSgSTSGST (lG*lA*l[5mC]*dA*dT*dC*dA*dC*dT*dC*dT*dG*dG*lT*lG*lT; antisense) [SEQ ID NO: 196]
Human HER3 mRNA [5]
  HER3: percentage down-regulation of mRNA relative to mock transfected cells: 77.0%*

## GSCSTScScSaSgSaScSaStScSaSCSTSC (antisense lG*l[5mC]*lT*dC*dC*dA*dG*dA*dC*dA*dT*dC*dA*l[5mC]*lT*l[5mC]) [SEQ ID NO: 169, β-D-oxy-LNA/DNA phosphorothioate gapmer antisense oligonucleotide targeting HER3]
Human EGFR mRNA
  EGFR: percentage down-regulation of mRNA relative to mock transfected cells: 95.2%
Human HER2 mRNA
  HER2: percentage down-regulation of mRNA relative to mock transfected cells: 75.8%
Mouse HER3 mRNA; 11.3 mg/kg
  HER3 mRNA Liver: 10.2 ± 5.5 % of Sal ctrl
Mouse HER3 mRNA; 37.7 mg/kg
  HER3 mRNA Liver: 20.7 ± 9.8 % of Sal ctrl
Human HER3 mRNA [1]; 37.7 mg/kg
  HER3 mRNA Tumor: 77 ± 10%
HER3 mRNA [2]; 37.7 x 4 mg/kg i.v.
  Tumor HER3 mRNA relative to saline treated controls: 81.6 ± 12.7%
HIF-1 alpha mRNA; 37.7 x 4 mg/kg i.v.
  Tumor Hif1A mRNA relative to saline treated controls: 94.6 ± 19.6%
HER3 mRNA [3]; 37.7 x 4 mg/kg i.v.
  Liver HER3 mRNA relative to saline treated controls: 39 ± 4.6%

## TSASGScScStStStSgSaScScStSCSTSC (antisense lT*lA*lG*dC*dC*dT*dT*dT*dG*dA*dC*dC*dT*l[5mC]*lT*l[5mC]) [SEQ ID NO: 249, reference compound]
HER3 mRNA [3]; N87 xenograft mice, 25 mg/kg, q3d x 5, i.v.
  HER3 Liver: 123 ± 4.5 % saline control
HER3 mRNA [6]
  HER3 Tumor: 99.0 ± 8.9 % saline control
